In US20090275583A1, “ANTIVIRAL COMPOUNDS AND USE THEREOF” (Myriad Genetics, Incorporated, priority 2006, published 2009):
Read-outs that look alike come from different tables or passages of the source.

Experiments:
[1] = test system: HIV-1 laboratory strain, NL4-3; assay: MT-4 cytoprotection assay; assay type: cell-based
Protocol: The HTLV-1 transformed T cell line, MT-4, is highly susceptible to HIV-1 infection. Anti-HIV-1 agents were evaluated in this target cell line by protection from the HIV-induced cytopathic effect. In this assay, viability of both HIV-1 and mock-infected cells was assessed in a […] assay that monitors the ability of metabolically-active cells to reduce the tetrazolium salt WST-1. Cytoprotection by antiviral compounds is indicated by the positive readout of increased WST-1 cleavage.
Briefly, exponentially growing MT-4 cells were mock-infected or batch-infected with the HIV-1 laboratory strain, NL4-3, at a multiplicity of infection of 0.0005. Following a two hour infection, the cells were washed to remove unbound virus and plated in the presence of increasing concentrations of compound. After four days incubation, cytoprotection in the infected cells and compound toxicity in mock-infected cells were analyzed using the WST-1 assay.

HIV-1NL4-3 = assay: P4-MAGI assay; assay type: cell-based
Method in brief: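 HeLa-derived CD4+ P4 cells carrying an LTR-driven lacZ were infected with HIV-1NL4-3 at MOI 1 with DEAE-Dextran, then compound added in increasing concentrations right after virus; infection reported as Tat-induced β-galactosidase. TC50 measured by WST-1 in mock-infected cells.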

[2] = Human immunodeficiency virus 1, NL43, MT4, 96 h, MT-4 cells, four days incubation, WST-1 readout, read-out: MT4 EC50
[3] = Human immunodeficiency virus 1, NL43, less than about 100 nm, read-out: MT-4 assay EC50 (concentration of compound that reduces the virus induced cytopathic effect by 50%)
[4] = Human immunodeficiency virus 1, 24 h, P4 cells, 24 hour incubation, β-galactosidase expression, read-out: P4-MAGI IC50
[5] = Human immunodeficiency virus 1, text statement, less than about 100 nm, read-out: P4-MAGI assay IC50

Structure (SMILES)	EC50 [1, 2]	EC50 [1, 3]	IC50 (HIV-1NL4-3; [4])	IC50 (HIV-1NL4-3; [5])
C=C(C)[C@@H]1CC[C@]2(C(=O)NCc3cccc(C(=O)NCc4ccc(F)c(C(=O)O)c4)c3)CC[C@]3(C)C(CCC4[C@@]5(C)CC[C@H](O)C(C)(C)C5CC[C@]43C)C12 (some centres unmarked) [Example 27]	73 nM	< 100 nM	53.5 nM	< 100 nM
C=C(C)[C@@H]1CC[C@]2(C(=O)NCc3cccc(C(=O)NCc4ccc(C(=O)OC)s4)c3)CC[C@]3(C)C(CCC4[C@@]5(C)CC[C@H](O)C(C)(C)C5CC[C@]43C)C12 (some centres unmarked) [Example 29]	18 nM	< 100 nM	37.9 nM	< 100 nM
C=C(C)[C@@H]1CC[C@]2(C(=O)NCc3cccc(C(=O)NCCc4ccc(F)c(C(=O)O)c4)c3)CC[C@]3(C)C(CCC4[C@@]5(C)CC[C@H](O)C(C)(C)C5CC[C@]43C)C12 (some centres unmarked) [Example 32]	3000 nM	–	15 nM	< 100 nM
C=C(C)[C@@H]1CC[C@]2(C(=O)NCc3cccc(C(=O)NCCc4ccc(F)c(C(=O)OC)c4)c3)CC[C@]3(C)C(CCC4[C@@]5(C)CC[C@H](O)C(C)(C)C5CC[C@]43C)C12 (some centres unmarked) [Example 33]	18 nM	< 100 nM	135 nM	–
C=C(C)[C@@H]1CC[C@]2(C(=O)NCc3cccc(C(=O)NCc4ccc(C(=O)O)c(F)c4)c3)CC[C@]3(C)C(CCC4[C@@]5(C)CC[C@H](O)C(C)(C)C5CC[C@]43C)C12 (some centres unmarked) [Example 34]	19 nM	< 100 nM	24.3 nM	< 100 nM
C=C(C)[C@@H]1CC[C@]2(C(=O)NCc3cccc(C(=O)NCc4ccc(C(=O)O)s4)c3)CC[C@]3(C)C(CCC4[C@@]5(C)CC[C@H](O)C(C)(C)C5CC[C@]43C)C12 (some centres unmarked) [Example 35]	85 nM	< 100 nM	53.2 nM	< 100 nM
C=C(C)[C@@H]1CC[C@]2(C(=O)NCc3cccc(C(=O)NCCc4cccc(C(=O)O)c4F)c3)CC[C@]3(C)C(CCC4[C@@]5(C)CC[C@H](O)C(C)(C)C5CC[C@]43C)C12 (some centres unmarked) [Example 36]	8.5 nM	< 100 nM	16.4 nM	< 100 nM
C=C(C)[C@@H]1CC[C@]2(C(=O)NCc3cccc(C(=O)NCC(F)(F)c4ccc(C(=O)O)cc4)c3)CC[C@]3(C)C(CCC4[C@@]5(C)CC[C@H](O)C(C)(C)C5CC[C@]43C)C12 (some centres unmarked) [Example 37]	7.3 nM	< 100 nM	56.7 nM	< 100 nM
C=C(C)[C@@H]1CC[C@]2(C(=O)NCc3cccc(C(=O)NCC(C)(C)c4cccc(C(=O)O)c4)c3)CC[C@]3(C)C(CCC4[C@@]5(C)CC[C@H](O)C(C)(C)C5CC[C@]43C)C12 (some centres unmarked) [Example 39]	5.3 nM	< 100 nM	40.2 nM	< 100 nM
C=C(C)[C@@H]1CC[C@]2(C(=O)NCc3cccc(C(=O)NCCc4ccc(C(=O)O)c(F)c4)c3)CC[C@]3(C)C(CCC4[C@@]5(C)CC[C@H](O)C(C)(C)C5CC[C@]43C)C12 (some centres unmarked) [Example 40]	6.3 nM	< 100 nM	19.9 nM	< 100 nM
C=C(C)[C@@H]1CC[C@]2(C(=O)NCc3cccc(C(=O)NCc4cccc(C(=O)O)c4F)c3)CC[C@]3(C)C(CCC4[C@@]5(C)CC[C@H](O)C(C)(C)C5CC[C@]43C)C12 (some centres unmarked) [Example 41]	1.9 nM	< 100 nM	36.7 nM	< 100 nM
C=C(C)[C@@H]1CC[C@]2(C(=O)NCc3cccc(C(=O)NCc4cccc(C(=O)OC)c4F)c3)CC[C@]3(C)C(CCC4[C@@]5(C)CC[C@H](O)C(C)(C)C5CC[C@]43C)C12 (some centres unmarked) [Example 42]	42 nM	< 100 nM	58.3 nM	< 100 nM
C=C(C)[C@@H]1CC[C@]2(C(=O)NCc3cccc(C(=O)NCCc4ccc(C(=O)O)cc4F)c3)CC[C@]3(C)C(CCC4[C@@]5(C)CC[C@H](O)C(C)(C)C5CC[C@]43C)C12 (some centres unmarked) [Example 43]	9.3 nM	< 100 nM	16.8 nM	< 100 nM
C=C(C)[C@@H]1CC[C@]2(C(=O)NCc3cccc(C(=O)NCCc4ccc(S(N)(=O)=O)cc4)c3)CC[C@]3(C)C(CCC4[C@@]5(C)CC[C@H](O)C(C)(C)C5CC[C@]43C)C12 (some centres unmarked) [Example 45]	94 nM	< 100 nM	15.9 nM	< 100 nM
C=C(C)[C@@H]1CC[C@]2(C(=O)NCc3cccc(C(=O)NCc4ccc(N(C)C)cc4)c3)CC[C@]3(C)C(CCC4[C@@]5(C)CC[C@H](O)C(C)(C)C5CC[C@]43C)C12 (some centres unmarked) [Example 47]	41.3 nM	< 100 nM	36.3 nM	< 100 nM
C=C(C)[C@@H]1CC[C@]2(C(=O)NCc3cccc(C(=O)NCCc4ccc(C(=O)O)s4)c3)CC[C@]3(C)C(CCC4[C@@]5(C)CC[C@H](O)C(C)(C)C5CC[C@]43C)C12 (some centres unmarked) [Example 48]	63 nM	< 100 nM	29 nM	< 100 nM
C=C(C)[C@@H]1CC[C@]2(C(=O)NCCc3cccc(C(=O)NCCCCC(=O)O)c3)CC[C@]3(C)C(CCC4[C@@]5(C)CC[C@H](O)C(C)(C)C5CC[C@]43C)C12 (some centres unmarked) [Example 56]	310 nM	–	46.7 nM	< 100 nM
C=C(C)[C@@H]1CC[C@]2(C(=O)NCCc3cccc(C(=O)NCCC(=O)O)c3)CC[C@]3(C)C(CCC4[C@@]5(C)CC[C@H](O)C(C)(C)C5CC[C@]43C)C12 (some centres unmarked) [Example 57]	1200 nM	–	98.2 nM	< 100 nM
C=C(C)[C@@H]1CC[C@]2(C(=O)NCCc3cccc(C(=O)NCc4cccc(C(=O)O)c4)c3)CC[C@]3(C)C(CCC4[C@@]5(C)CC[C@H](O)C(C)(C)C5CC[C@]43C)C12 (some centres unmarked) [Example 58]	18 nM	< 100 nM	18.6 nM	< 100 nM
C=C(C)[C@@H]1CC[C@]2(C(=O)NCCc3cccc(C(=O)NCCc4cccc(C(=O)O)c4)c3)CC[C@]3(C)C(CCC4[C@@]5(C)CC[C@H](O)C(C)(C)C5CC[C@]43C)C12 (some centres unmarked) [Example 59]	68 nM	< 100 nM	66.1 nM	< 100 nM
C=C(C)[C@@H]1CC[C@]2(C(=O)NCCc3cccc(C(=O)Nc4cccc(C(=O)O)c4)c3)CC[C@]3(C)C(CCC4[C@@]5(C)CC[C@H](O)C(C)(C)C5CC[C@]43C)C12 (some centres unmarked) [Example 60]	248 nM	–	31 nM	< 100 nM
C=C(C)[C@@H]1CC[C@]2(C(=O)NCCc3cccc(C(=O)Nc4cc(C(=O)O)ccc4N)c3)CC[C@]3(C)C(CCC4[C@@]5(C)CC[C@H](O)C(C)(C)C5CC[C@]43C)C12 (some centres unmarked) [Example 61]	2300 nM	–	65 nM	< 100 nM
C=C(C)[C@@H]1CC[C@]2(C(=O)NCCc3cccc(C(=O)NCC(=O)OCC)c3)CC[C@]3(C)C(CCC4[C@@]5(C)CC[C@H](O)C(C)(C)C5CC[C@]43C)C12 (some centres unmarked) [Example 62]	230 nM	–	40.4 nM	< 100 nM
C=C(C)[C@@H]1CC[C@]2(C(=O)NCCc3cccc(C(=O)NC(CCC(=O)OC)C(=O)OC)c3)CC[C@]3(C)C(CCC4[C@@]5(C)CC[C@H](O)C(C)(C)C5CC[C@]43C)C12 (some centres unmarked) [Example 63]	90 nM	< 100 nM	35.9 nM	< 100 nM
C=C(C)[C@@H]1CC[C@]2(C(=O)NCCc3cccc(C(=O)N[C@@H](CC(C)C)[C@@H](O)CC(=O)O)c3)CC[C@]3(C)C(CCC4[C@@]5(C)CC[C@H](O)C(C)(C)C5CC[C@]43C)C12 (some centres unmarked) [Example 65]	83 nM	< 100 nM	156 nM	–
